pKd: −log10 of the molar value.
Target: T1, RAR-α (Homo sapiens, UniProt P10276)
T1 construct: The Plasmid pGEG-hRAR-α for full-length RAR-α expression; made in house; host or cells: E. coli BL21 (DE3)
T1 sequence (P10276 1-462): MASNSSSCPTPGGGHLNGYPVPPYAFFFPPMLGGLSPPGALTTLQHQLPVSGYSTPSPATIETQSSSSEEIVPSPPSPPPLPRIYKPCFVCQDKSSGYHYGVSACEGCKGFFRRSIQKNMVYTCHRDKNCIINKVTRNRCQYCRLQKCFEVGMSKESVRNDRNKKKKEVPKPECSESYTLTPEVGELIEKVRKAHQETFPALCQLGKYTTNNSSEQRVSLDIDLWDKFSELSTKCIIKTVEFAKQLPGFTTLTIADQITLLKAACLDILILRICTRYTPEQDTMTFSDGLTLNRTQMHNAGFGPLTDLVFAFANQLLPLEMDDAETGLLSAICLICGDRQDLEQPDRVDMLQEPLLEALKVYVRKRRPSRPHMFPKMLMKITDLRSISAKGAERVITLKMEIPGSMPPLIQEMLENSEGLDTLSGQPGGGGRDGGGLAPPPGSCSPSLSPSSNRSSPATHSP
Test: Competitive radioligand (tritium labeled tRA) hydroxylapatite binding assay in E. coli expressed RAR-α
Conditions: read-out: Kd (mircomolar)
Procedure: After correcting for non-specific binding, IC50 values were determined.

Compound	pKd
COc1ccc(-c2ccc3cc(C(=O)O)ccc3c2)cc1C12CC3CC(CC(C3)C1)C2 [Adapalene]	6.52
COc1ccc(-c2ccc3cc(C4=C(O)CCC4=O)ccc3c2)cc1C12CC3CC(CC(C3)C1)C2 [Example 8, 2-[6-(3-Adamantan-1-yl-4-methoxyphenyl)-naphthalen-2-yl]-3-hydroxy-cyclopent-2-enone]	4.80
